Measured values taken from ChEMBL document CHEMBL4229569, “Structure-Based Design of 1-Heteroaryl-1,3-propanediamine Derivatives as a Novel Series of CC-Chemokine Receptor 5 Antagonists” (J Med Chem, 2018).

Legend:
[1] = molecular target: C-C chemokine receptor type 5 (Homo sapiens, UniProt P51681); experiment: Antagonist activity at CCR5 (unknown origin) expressed in HEK293 cells co-expressing Galpha16 assessed as inhibition of RANTES-induced calcium flux preincubated for 10 mins followed by RANTES addition by fluo-4AM-based fluorescence assay; type: functional, cell-based
Chain of C-C chemokine receptor type 5 (P51681 whole entry): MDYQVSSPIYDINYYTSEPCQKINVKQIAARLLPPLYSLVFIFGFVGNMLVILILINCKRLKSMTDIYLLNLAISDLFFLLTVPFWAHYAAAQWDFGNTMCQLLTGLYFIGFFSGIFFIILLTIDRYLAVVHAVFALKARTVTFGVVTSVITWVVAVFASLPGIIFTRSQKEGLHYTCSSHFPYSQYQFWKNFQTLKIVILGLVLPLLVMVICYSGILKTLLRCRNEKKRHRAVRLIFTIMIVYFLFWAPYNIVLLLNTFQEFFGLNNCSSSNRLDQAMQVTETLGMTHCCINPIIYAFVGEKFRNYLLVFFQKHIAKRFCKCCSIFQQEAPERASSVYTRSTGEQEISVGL

[2] = tested on: Human immunodeficiency virus 1; experiment: microbe, parasite or virus in culture; conditions: Human immunodeficiency virus 1, SF162, TZM-bl, 48 h
Description: Antiviral activity against CCR5-dependent HIV1 SF162 infected in human TZM-bl cells assessed as reduction in virus infection measured after 48 hrs post infection by luciferase reporter gene assay

in vitro = conditions: human, TZM-bl cells
Description: Therapeutic index, ratio of CC50 for human TZM-bl cells to EC50 for CCR5-dependent HIV1 SF162 infected in human TZM-bl cells

[3] = Cytotoxicity against human TZM-bl cells after 48 hrs by MTT assay; type: cell-based

| Structure (SMILES) | IC50 [1] [nM] | further results |
| --- | --- | --- |
| Cc1ccc([C@H](CCN2[C@@H]3CC[C@H]2C[C@H](n2c(C(C)C)nnc2C(F)(F)F)C3)NC(=O)C2CCC(F)(F)CC2)s1 | 4 | – |
| CCc1nnc(C)n1[C@@H]1C[C@H]2CC[C@@H](C1)N2CC[C@H](NC(=O)C1CCC(F)(F)CC1)c1ccsc1 | 2.8 | – |
| Cc1nnc(C(C)C)n1[C@@H]1C[C@H]2CC[C@@H](C1)N2CC[C@H](NC(=O)C1CCC(F)(F)CC1)c1ccc(F)nc1 | 252 | – |
| O=C(N[C@@H](CCN1[C@@H]2CC[C@H]1C[C@H](n1c(C3CC3)nnc1C(F)(F)F)C2)c1ccsc1)C1CCC(F)(F)CC1 | 2.9 | – |
| Cc1ccc([C@H](CCN2[C@@H]3CC[C@H]2C[C@H](n2c(C)nnc2C(C)C)C3)NC(=O)c2ccccc2)s1 | 51.7 | – |
| Cc1nnc(C(C)C)n1[C@@H]1C[C@H]2CC[C@@H](C1)N2CC[C@H](NC(=O)C1CC(=O)N(C)C1)c1cccs1 (stereo partly specified) | 5.2 | – |
| Cc1cscc1[C@H](CCN1[C@@H]2CC[C@H]1C[C@H](n1c(C)nnc1C(C)C)C2)NC(=O)C1CCC(F)(F)CC1 | 8.1 | – |
| Cc1nnc(C(C)C)n1[C@@H]1C[C@H]2CC[C@@H](C1)N2CC[C@H](NC(=O)C1CCC(F)(F)C1)c1cccs1 (stereo partly specified) | 2.3 | – |
| Cc1nnc(C(C)C)n1[C@@H]1C[C@H]2CC[C@@H](C1)N2CC[C@H](NC(=O)C1CC(F)(F)C1)c1cccs1 | 2.6 | – |
| Cc1nnc(C(C)C)n1[C@@H]1C[C@H]2CC[C@@H](C1)N2CC[C@H](NC(=O)C(C)(C)C(F)(F)F)c1cccs1 | 5.4 | – |
| Cc1ccc([C@H](CCN2[C@@H]3CC[C@H]2C[C@H](n2c(C)nnc2C(C)C)C3)NC(=O)C2CCCC2)s1 | 2.6 | – |
| Cc1nnc(C2CC2)n1[C@@H]1C[C@H]2CC[C@@H](C1)N2CC[C@H](NC(=O)C1CCC(F)(F)CC1)c1ccsc1 | 2.6 | – |
| Cc1nnc(C(C)C)n1[C@@H]1C[C@H]2CC[C@@H](C1)N2CC[C@H](NC(=O)C1CCC(F)(F)CC1)c1csc2ccccc12 | 9.7 | IC50 [2]: 810 nM; selectivity ratio (in vitro): 119; CC50 at 48 h [3]: 96100 nM |
